The structures appear in SMILES notation.

The series in a line: Human HepG2 cell viability assay in 384 well format. The class given is toxicity, cell-based. On the set-up: dose 125 nL, time 70.5 hour; concentration not given beside the values. The following applies: HepG2 cells, read-out: Inhibition.
In the case of `c1ccc2sc(CN3CCOC(Cn4cccn4)C3)nc2c1` (stereo not drawn), the cytotoxicity at 70.5 h was 24.8%.

`O=C(CCc1cc2n(n1)CCCN(C(=O)c1ccccn1)C2)NC1CC1`: the cytotoxicity at 70.5 h is -4.46%.

With `COCCn1cnnc1Cn1ccnc1-c1ccoc1`, the cytotoxicity at 70.5 h came to 27.2%.

On to `CC(=O)N1CCC(Cc2cnc(Nc3cc(C)on3)cn2)CC1`, for which the cytotoxicity at 70.5 h is -4.74%.

In the case of `O=C(c1c2c(N3CCCC3)ncnc2n2ccccc12)N1CCOCC1`, the cytotoxicity at 70.5 h was -5.97%.

As to `CCOC(=O)[C@H]1[C@@H](O)C(=O)N(C)C12CCN(C(=O)CC(C)C)CC2`, the cytotoxicity at 70.5 h was -6.09%.

For `COCCNC(=O)[C@H]1C[C@@H]2CCN(c3ccncn3)C[C@H]2O1`, the cytotoxicity at 70.5 h stood at 1.69%.

`O=C(c1ccncc1)N1CCC(O)(Cn2ccc3ccncc32)CC1`: the cytotoxicity at 70.5 h is -13.3%.

For `Cc1cc2n(n1)CC(CNCc1ccc(N3CCOCC3)nc1)CN2` (stereo not drawn), the cytotoxicity at 70.5 h is -9.07%.

In the case of `CCOCC1CN(C(=O)c2cc(C)oc2C)Cc2c1cnn2C` (stereo not drawn), the cytotoxicity at 70.5 h was -0.121%.

With `CN(C)C(=O)CN1CCCN(CC2CCOc3ccccc3C2)CC1` (stereo not drawn), the cytotoxicity at 70.5 h is -11.2%.

For the molecule `COC1CCN(Cc2csc(C(C)C)n2)CC1`, the cytotoxicity at 70.5 h is -5.9%.

Consider `Cc1nc(CNC(=O)NCC(O)c2ccccc2)cs1` (stereo not drawn), for which the cytotoxicity at 70.5 h was -2.52%.

Turning to `COCCn1ccnc1C1CCCN(c2ncnc3c(C)csc23)C1` (stereo not drawn), the cytotoxicity at 70.5 h is 23.8%.

Turning to `O=C(C1CC(F)(F)C1)N1C[C@@H]2CN(CC3CC3)CCO[C@@H]2C1`, the cytotoxicity at 70.5 h is 26%.

For the molecule `COc1nc2c(cc1C(=O)N1CCCOC(CN3CCCC3)C1)CCC2` (stereo not drawn), the cytotoxicity at 70.5 h was -13.7%.

For `COC(=O)c1ccc(C(=O)N2CCC(c3nnc(C)s3)CC2)cc1`, the cytotoxicity at 70.5 h is -10.2%.

In the case of `CCCN(C(=O)CS(=O)(=O)c1ccccc1)c1cccc(C)c1`, the cytotoxicity at 70.5 h is -5.44%.

With `CC(C)N(Cc1ccccc1)Cc1nnsc1Cl`, the cytotoxicity at 70.5 h was -8.66%.

With `CCOc1c(OC)cc(/C=C/c2ncc(C(=O)NC)s2)cc1OC`, the cytotoxicity at 70.5 h is -7.3%.

For the molecule `O=C(CCn1cncn1)NC1(c2cccc(Br)c2)CCC1`, the cytotoxicity at 70.5 h was -2.65%.

Consider `CC(=O)N[C@@H]1CN(C(=O)c2cccc(C(F)(F)F)c2)C[C@H]1O`, for which the cytotoxicity at 70.5 h is -4.74%.

Turning to `Cc1noc(C)c1-c1cncc(C2CCCN2Cc2cn(C)cn2)n1` (stereo not drawn), the cytotoxicity at 70.5 h is -5.21%.

Turning to `COc1c(C2CCCN2CC(=O)Nc2cc(C)on2)c(C)nn1C` (stereo not drawn), the cytotoxicity at 70.5 h was found to be 12.2%.

For the molecule `CN(Cc1ccccc1)C1(C(=O)O)Cc2ccccc2C1`, the cytotoxicity at 70.5 h was -1.88%.

Take `O=C(N[C@@H]1CN(c2ncccn2)C[C@@H]2CCCO[C@@H]21)c1ccncc1`: the cytotoxicity at 70.5 h is -3.78%.

As for `CC(C)(C)SCC(=O)NCCc1csc(N2CCCC2)n1`, the cytotoxicity at 70.5 h was -6.06%.

With `CC(C)Oc1cc(N2CC[C@H](CO)[C@@H](O)C2)nc(N)n1`, the cytotoxicity at 70.5 h was -8.74%.

In the case of `OCCn1nccc1C1CCN(CCOc2ccccc2)CC1`, the cytotoxicity at 70.5 h was 8.03%.

Regarding `Cc1ccc(S(=O)(=O)N2CCN(Cc3ccncc3)CC2)c(Cl)c1`, the cytotoxicity at 70.5 h is -26.7%.

As to `O=C(Cc1ccc2c(c1)OCC2)Nc1nc[nH]n1`, the cytotoxicity at 70.5 h is -8.03%.

Turning to `Cc1cccc(N2CC[C@@H]3CN(Cc4csc(C)n4)CCO[C@@H]3C2)n1`, the cytotoxicity at 70.5 h was 2.82%.

Turning to `COC(=O)c1cccc2nc([C@H]3CCN(Cc4ccccc4C)C3)oc12`, the cytotoxicity at 70.5 h was -14.2%.

Take `CCc1cc(C(=O)N2CC[C@@H](c3ccc4c(c3)OCO4)[C@H](O)C2)ccn1`: the cytotoxicity at 70.5 h is 16.7%.

Regarding `O=C(NCC1CCOC1)Nc1ccc(Oc2cccc(F)c2)nc1` (stereo not drawn), the cytotoxicity at 70.5 h was -10.7%.

`CN(Cc1ccco1)[C@@H]1CN(Cc2ccsc2)C[C@@H]2CCCO[C@@H]21`: the cytotoxicity at 70.5 h was found to be 2.78%.

Turning to `CCn1c(C)cc(C(=O)N2CCCC(c3nc(C)no3)C2)c1C` (stereo not drawn), the cytotoxicity at 70.5 h is -3.95%.

In the case of `Cc1cnc(N2CCC3(CC2)CC3CNC(=O)N(C)C)nc1` (stereo not drawn), the cytotoxicity at 70.5 h is -6.55%.
